One data set relates to B-16 melanoma cells. Nature of the data set: Melanin production inhibiting effect on chromatophore (visual whiteness of cell pellets). In kind it is cell-based. Also on record: key: −: Equal to solvent control (black); +: Slightly different from solvent control (dark gray); ++: Markedly different from solvent control (pale gray); +++: No coloring of cells (white). The note with it: 3 days culture with sample. The method, then:
A plastic culture flask (25 cm^2) was inoculated with 8×10^4 B-16 melanoma cells, which were incubated in a DMEN medium (Nippon Suisan Kaisha, Ltd.) containing 10% serum in the presence of 5% CO2 at 37° C. After 3 days, a test sample diluted with EtOH was added to the medium at a concentration of 0.4, 0.8, 1.6, 3.1 and 6.2 ppm and the culture was continued for further 3 days.
After completion of the culture to remove the culture followed by washing with a phosphate buffer (hereinafter referred to as PBS), the cells were removed from the flask using a medium containing trypsin and EDTA (ethylenediamine tetraacetic acid) and the cells were recovered from the cell suspension by centrifugation.
The cells thus obtained were washed once with PBS and then the pellets were evaluated visually for their whiteness.
Similarly to Example 16, the melanin production inhibiting effects of arbutin, tetrahydroionol, β-ionone, dihydro-β-ionone and the novel compounds of the invention (1′i, 1″i, 1^4′i) on a chromatophore were determined.

The nature of data set [1]: Patch test of 2% lanolin paste on upper arm of panelists. It is filed as in vivo, human. To be noted: 2% by weight in lanolin paste, 24 h patch on upper arm, 30 panelists, observed at removal and 24 h later.

Data on 14 molecules can be found in US6440400B1, “Trimethylcylohexane derivatives and melanin-formation inhibitors and perfumeholding agents with the use of the same” (Takasago International Corporation, priority 1998, dated 2002).

Turning to `CCCCCC(O)CCC1C(C)CCCC1(C)C` (stereo not shown) [Compound 1^4′i, 1-(2′,2′,6′-Trimethylcyclohexan-1′-yl)-octan-3-ol], the “whiteness of cell pellets, evaluated visually” value (“whiteness of cell pellets” below) is on record as “−” in the data set with B-16 melanoma cells (0.4 ppm); “−” with B-16 melanoma cells (0.8 ppm); “++” in the data set on B-16 melanoma cells (1.6 ppm); “+++” with B-16 melanoma cells (3.1 ppm); “+++” in the data set with B-16 melanoma cells (6.2 ppm).
With `CCCCCCCC(O)CCC1C(C)CCCC1(C)C` (stereo not shown) [Compound 1^4′m, 1-(2′,2′,6′-Trimethylcyclohexan-1′-yl)-decan-3-ol], the “whiteness of cell pellets” value with B-16 melanoma cells (1.6 ppm), with B-16 melanoma cells (3.1 ppm) and in the data set on B-16 melanoma cells (6.2 ppm) was “+” in each case.
Consider `CCCCCC(=O)C=CC1C(C)CCCC1(C)C` (stereo not shown) [Compound 1′i, 1-(2′,2′,6′-Trimethylcyclohexan-1′-yl)octan-1-en-3-one], for which the “Number of panelists exhibiting abnormality” value in data set [1] was 0. Also, the “Number ot panelists exhibiting no abnormality” value in data set [1] was 30. The “whiteness of cell pellets” value is “−” in the data set on B-16 melanoma cells (0.4 ppm); “+” with B-16 melanoma cells (0.8 ppm); “+++” in the data set on B-16 melanoma cells (1.6 ppm); “+++” in the data set on B-16 melanoma cells (3.1 ppm); “+++” in the data set with B-16 melanoma cells (6.2 ppm).
Consider `CC(C)CCCC(=O)C=CC1C(C)CCCC1(C)C` (stereo not shown) [Compound 1′k, 1-(2′,2′,6′-Trimethylcyclohexan-1′-yl)-7-methyloctan-1-en-3-one], for which the “whiteness of cell pellets” value in the data set with B-16 melanoma cells (1.6 ppm) is recorded as “++”; with B-16 melanoma cells (3.1 ppm), “+++”; in the data set with B-16 melanoma cells (6.2 ppm), “+++”.
On to `CC(C)=CCCC(=O)C=CC1C(C)CCCC1(C)C` (stereo not shown) [Compound 1′l, 1-(2′,2′,6′-Trimethylcyclohexan-1′-yl)-7-methyloctan-1,6-dien-3-one], for which the “whiteness of cell pellets” value in the data set on B-16 melanoma cells (1.6 ppm) is recorded as “+”; with B-16 melanoma cells (3.1 ppm), “+++”; in the data set on B-16 melanoma cells (6.2 ppm), “+++”.
For `CCCCCCCC(=O)C=CC1C(C)CCCC1(C)C` (stereo not shown) [Compound 1′m, 1-(2′,2′,6′-Trimethylcyclohexan-1′-yl)-decan-1-en-3-one], the figures for the “whiteness of cell pellets” value in the data set on B-16 melanoma cells (1.6 ppm), with B-16 melanoma cells (3.1 ppm) and with B-16 melanoma cells (6.2 ppm) were “+”, “+” and “+++”, respectively.
On to `CCCCCC(O)C=CC1C(C)CCCC1(C)C` (stereo not shown) [Compound 1″i, 1-(2′,2′,6′-trimethylcyclohexan-1′-yl)octan-1-en-3-ol], for which, in data set [1], the “Number of panelists exhibiting abnormality” value is listed as 0. For the same molecule, the “Number ot panelists exhibiting no abnormality” value in data set [1] stood at 30. In addition, the “whiteness of cell pellets” value with B-16 melanoma cells (0.4 ppm) is given as “−”; in the data set with B-16 melanoma cells (0.8 ppm) it was “+”; with B-16 melanoma cells (1.6 ppm), “+++”; with B-16 melanoma cells (3.1 ppm), “+++”; in the data set with B-16 melanoma cells (6.2 ppm) it was “+++”.
As to `CC(C)CCCC(O)C=CC1C(C)CCCC1(C)C` (stereo not shown) [Compound 1″k, 1-(2′,2′,6′-Trimethylcyclohexan-1′-yl)-7-methyloctan-1-en-3-ol], the “whiteness of cell pellets” value in the data set on B-16 melanoma cells (1.6 ppm), in the data set with B-16 melanoma cells (3.1 ppm) and with B-16 melanoma cells (6.2 ppm) was “+++” each time.
Consider `CC(C)=CCCC(O)C=CC1C(C)CCCC1(C)C` (stereo not shown) [Compound 1″l, 1-(2′,2′,6′-Trimethylcyclohexan-1′-yl)-7-methyloctan-1,6-dien-3-ol], for which the “whiteness of cell pellets” value in the data set on B-16 melanoma cells (1.6 ppm), in the data set with B-16 melanoma cells (3.1 ppm) and in the data set with B-16 melanoma cells (6.2 ppm) was “+++” in each case.
Regarding `CCCCCCCC(O)C=CC1C(C)CCCC1(C)C` (stereo not shown) [Compound 1″m, 1-(2′,2′,6′-Trimethylcyclohexan-1′-yl)-decan-1-en-3-ol], the entries for the “whiteness of cell pellets” value with B-16 melanoma cells (1.6 ppm), with B-16 melanoma cells (3.1 ppm) and in the data set on B-16 melanoma cells (6.2 ppm) were “+”, “+” and “+++”, respectively.
Consider `CCCCCC(O)C(C)=CC1C(C)CCCC1(C)C` (stereo not shown) [Compound 1″x, 1-(2′,2′,6′-Trimethylcyclohexan-1′-yl)-2-methyloctan-1-en-3-ol], for which the “whiteness of cell pellets” value in the data set on B-16 melanoma cells (1.6 ppm) is reported as “+”; in the data set with B-16 melanoma cells (3.1 ppm), “++”; in the data set with B-16 melanoma cells (6.2 ppm), “+++”.
As for `CC(=O)CCC1=C(C)CCCC1(C)C` [Dihydro-β-ionone, dihydro-β-ionone, reference compound], the “whiteness of cell pellets” value is “−” in the data set with B-16 melanoma cells (0.4 ppm); “−” in the data set with B-16 melanoma cells (0.8 ppm); “−” in the data set on B-16 melanoma cells (1.6 ppm); “+” in the data set on B-16 melanoma cells (3.1 ppm); “++” in the data set with B-16 melanoma cells (6.2 ppm).
With `CC(O)CCC1C(C)CCCC1(C)C` (stereo not shown) [Tetrahydroionol, tetrahydroionol, reference compound], the “whiteness of cell pellets” value is on record as “−” with B-16 melanoma cells (0.4 ppm); “−” in the data set with B-16 melanoma cells (0.8 ppm); “−” with B-16 melanoma cells (1.6 ppm); “+” with B-16 melanoma cells (3.1 ppm); “++” in the data set on B-16 melanoma cells (6.2 ppm).
Regarding `CC(=O)/C=C/C1=C(C)CCCC1(C)C` [β-Ionone, β-ionone, reference compound], the “whiteness of cell pellets” value with B-16 melanoma cells (0.4 ppm) was “−”; with B-16 melanoma cells (0.8 ppm) it was “−”; in the data set with B-16 melanoma cells (1.6 ppm), “−”; with B-16 melanoma cells (3.1 ppm), “+”; with B-16 melanoma cells (6.2 ppm), “++”.
